Assay results taken from patent publication US9657071B2, “IgE peptide vaccine” (NIPPON ZENYAKU KOGYO CO., LTD., priority 2012, dated 2017).

What was measured:
Assay type in all cases: in vivo
Conditions in all cases: dog
Der f 2-specific IgE = Der f 2-specific IgE in serum of vaccinated, Der f 2-sensitized dogs
Description: (§1) The peptide used was MOUSE CH3-4-17-11 (mouse CH3 region amino acid sequence) (SEQ ID NO: 27). 2 mL (500 μg) of a solution of the peptide (concentration: 250 μg/mL) and 2 mL of a complete adjuvant (DIFCO ADJUVANT COMPLETE FREUND, Becton, Dickinson and Company Japan) were dispensed to microtubes. Liquids (4 mL per animal) emulsified by shaking for 15 minutes in a high-speed shaker were used as IgE peptide vaccines.
(§2) The animals used were 1 male and 7 females of 5- to 7-month-old beagles and were divided into an administration group (n=4; 08-33, 08-42, 08-43, and 08-44) and a non-administration group (n=4; 08-45, 08-46, 08-47, and 08-48).
(§3) The peptide was administered at days 0 (test start date), 14, and 28 in the first course and further at days 106 and 117 in the second course. The test substance was subcutaneously administered to the necks of the 4 animals in the administration group. The non-administration group was untreated.
Four weeks after the completion of the peptide administration of the first course (days 56 and 70 into the test), all of the animals were artificially sensitized. A mixed liquid (4.0 mL per animal) of 300 μg of Der f 2 (Lot No. 3, 1465 μg/mL, prepared by a drug research team) and 50 mg of an alum adjuvant (SIGMA® Aluminium hydrate IgE1, 13 mg/mL) was used as a sensitizing solution and administered intraperitoneally for the first shot and subcutaneously to the necks for the second shot.
Four weeks after the completion of the peptide administration of the second course (day 145 into the test), the artificial sensitization was boosted. A 1-mL solution prepared from Der f 2 (Lot No. 3: 0.205 mL of 1465 μg/mL: 300 μg) with saline was subcutaneously administered to the necks of all of the animals.
(§4) At days 0, 14, 28, 42, 56, 70, 77, 84, 98, 106, 117, 131, 145, and 152 (4 time points (0, 14, 28, and 42) were excluded for the non-administration group), blood was collected from the jugular vein of each individual using a syringe. After separation of serum, the serum was used to measure peptide-specific IgG concentrations and IgE-specific IgG concentrations in the serum.
Serum obtained at days 70, 77, 106, 117, 131, 145, and 152 were used in the measurement of Der f 2-specific IgE concentrations in the serum, which was consigned to AAC Laboratories Inc.

peptide-specific IgG = assay: Peptide-specific IgG in serum of dogs given IgE peptide vaccine (ELISA)
Description: as §1, §2, §3, §4
Each antigenic protein (MOUSE CH3-4-17-11 for peptide-specific IgG assay, and human IgE for IgE-specific IgG assay) was prepared at 1 μg/mL in an immobilization buffer (0.05 M carbonate buffer, pH 9.6), then added at a concentration of 100 μL/well to an ELISA plate, and left overnight at 4° C. The immobilization plate was washed once with PBS-T (0.05%). A blocking solution (4× Block Ace, Snow Brand Milk Products Co., Ltd.; UK-B80) was added thereto at a concentration of 200 μL/well. The plate was blocked by incubation at 37° C. for 1.5 hours. The serum was diluted 5000-fold with a diluent (PBS-T:Block Ace=9:1) and used. […] Then, the measurement was performed using a plate reader (Bio-Rad Laboratories, Inc.; model 680) (dual: measurement: 450 nm, control: 570 nm).

human IgE = assay: IgE-specific IgG in serum of dogs given IgE peptide vaccine (ELISA, human IgE immobilized)
Description: as §1, §2
The peptide was administered at days 0 (test start date), 14, and 28 in the first course and further at days 106 and 117 in the second course. The test substance was subcutaneously administered to the necks of the 4 animals in the administration group. The non-administration group was untreated. […]
Each antigenic protein (MOUSE CH3-4-17-11 for peptide-specific IgG assay, and human IgE for IgE-specific IgG assay) was prepared at 1 μg/mL in an immobilization buffer (0.05 M carbonate buffer, pH 9.6), then added at a concentration of 100 μL/well to an ELISA plate, and left overnight at 4° C. […] Then, the measurement was performed using a plate reader (Bio-Rad Laboratories, Inc.; model 680) (dual: measurement: 450 nm, control: 570 nm). […]

Sequence: QEKKTSVSASQWYTKHHNNATTSIT (listed as Mus musculus) [MOUSE CH3-4-17-11]
- Der f 2-specific IgE in serum, administration group versus non-administration group (Der f 2-specific IgE; all of the time points): no significant difference
- Der f 2-specific IgE concentrations in serum, administration group (Der f 2-specific IgE; day 70 (2 weeks after the first sensitization)): 1528.8 ± 1823.6 ng/mL
- average of Der f 2-specific IgE concentrations in the serum of the administration group (Der f 2-specific IgE; day 77, 3 animals, excluding 08-43): 1352.3 ng/mL
- Der f 2-specific IgE concentrations in serum, administration group (Der f 2-specific IgE; day 106 (peak)): 3091.8 ± 1542.6 ng/mL
- Der f 2-specific IgE concentrations in serum, administration group (Der f 2-specific IgE; day 152 (7 days after the boosting)): 3972.5 ± 1216.5 ng/mL
- production of IgE after subsequent sensitization (Der f 2-specific IgE; summary of FIG. 6): inhibited the production of IgE
- peptide-specific IgG concentrations in serum (O.D. values), one animal (08-44) (peptide-specific IgG; s.c., day 117 or later (second course)): ≥ 1.0 O.D.
- peptide-specific IgG in serum, administration group versus non-administration group (peptide-specific IgG; day 77, p<0.05): significantly higher
- level of IgG antibody against the peptide (peptide-specific IgG; summary of FIG. 6): increased
- IgE-specific IgG in serum, administration group versus non-administration group (human IgE; day 77, p<0.05): significantly higher
- level of IgG antibody against IgE (human IgE; summary of FIG. 6): increased
